Entries after “also recorded” stand apart in the source; their conditions may differ.
What was measured:
[1] = test system: PLP induced EAE mice
Method: (A-E) SJL mice were immunized with proteolipid peptide (PLP) and pertussis toxin and monitored daily with scoring on the standard clinical EAE scale (0-5). Compounds were administered daily for the duration of the study in saline at 10 mg/kg via intra-peritoneal injection (0.1 ml), starting on the day of the appearance of clinical EAE symptoms (day 10). […] Mean clinical EAE score and standard error of mean (SEM) are shown for each study group.
FIG. 25. […] EAE was induced in mice using PLP and pertussis toxin. […] Prophylactic dosing is defined as administration of compound commenced on the day of PLP injection. Error bars indicate standard deviation of the mean within each group of 8 mice.
(A-F) EAE was induced in mice using PLP and pertussis toxin. […] Error bars indicate standard deviation of the mean within each group of 8 mice.
(A-F) EAE was induced in mice by injecting PLP in complete Freund's adjuvant (CFA) and pertussis toxin, and the animals were scored daily for clinical severity of disease on a scale of 0-5. […] Error bars indicate standard deviation of the mean within each group of 8-10 mice.
10 week old SJL mice were immunized with PLP emulsion and pertusis toxin to induce EAE. […] Compounds were administered daily via intraperitoneal injection of 100 ul in sterile saline at 10 mg/kg alone or in combination with mycophenolate motefil in sterile saline at pH 5 at 20 mg/kg. Compound administration was initiated at disease onset (day 10) while mycophenolate motefil administration was initiated on Day 14. The mice were scored daily on a standard EAE scale of 0-5.
This model is most commonly used to evaluate the potential efficacy of immunomodulatory agents, but can also be used to determine the effectiveness of promyelinating agents that function by enhancing OPC differentiation (M. Fernandez et al., Proc Natl Acad Sci U.S.A, 101, 16363 (2004); X. Lee et al., J Neurosci, 27, 220 (2007); reviewed in R. J. Franklin, C. Ffrench-Constant, Nat Rev Neurosci, 9, 839 (2008)). […] We next evaluated efficacy when the drug is dosed therapeutically, by starting daily injections at the first sign of disease onset.
For the treatment of MS, an OPC differentiation inducing drug would most likely be introduced clinically as part of a combination therapy with an immunosuppressive drug. […] The former reduces T-cell proliferation and alters cytokine expression (A. Noronha, A. Toscas, M. A. Jensen, J Neuroimmunol, 46, 145 (1993); A. Noronha, A. Toscas, M. A. Jensen, Ann Neurol, 27, 207 (1990)), while the latter is an S1P agonist that regulates T-cell trafficking (V. Brinkmann et al., J Biol Chem, 277, 21453 (2002); V. Brinkmann et al., Nat Rev Drug Discov, 9, 883 (2010)).

[2] = test system: total splenocytes stimulated with CD3; test: T-cell activation (CD69, CD25) and proliferation (CFSE) in vitro; assay type: cell-based, mouse; settings: versus DMSO
From the text: (A-F) Total splenocytes were isolated from mice and stimulated with CD3 and analyzed by flow cytometry for expression of T-cell activation markers CD69 and CD25 and T-cell proliferation using CFSE. (A) Unstimulated cells. (B) DMSO treated cells. […] The numbers represent percentage gated populations positive for the given marker.
The primary immunological processes involved in MS and EAE are T-cell mediated and the primary treatment paradigms are based on immunomodulatory drugs (T. Kopadze et al., Arch Neurol, 63, 1572 (2006); J. M. Greer et al., J Immunol, 180, 6402 (2007), M. P. Pender and J. M. Greer, curr Allergy Asthma Rep, 7, 285 (2007)).

[3] = test system: rat optic nerve derived OPCs; test: High content imaging assay of OPC differentiation (MBP immunostaining, OPERA); assay type: cell-based; settings: for induction of OPC differentiation (MBP staining): OPCs in differentiation medium (2 ng/ml PDGF), 6 days
Method: FIG. 1A-C. […] The calculated EC50 values were determined using appropriate Graphpad Prism 5.0 curve fitting software. […] OPCs were plated in 384 well plates at 1000 cells per well in OPC media containing basal PDGF-αα (2 ng/mL) and treated with serial dilutions of compounds. Following six days of compound treatment, cells were fixed and subjected to immunofluorescence analysis using anti-myelin basic protein (MBP) antibody. Image acquisition and quantification of MBP staining was performed using the OPERA imaging system.
FIG. 11A-B. Screen to identify inducers of OPC differentiation. (A) OPCs were maintained as proliferating A2B5-positive cells under basal growth conditions (Neurobasal medium, B27 supplement without Vitamin A, non-essential amino acids, L-Glutamine, 30 ng/ml PDGF). OPCs were plated in basal differentiation media (Neurobasal medium, B27 supplement without Vitamin A, non-essential amino acids, L-Glutamine, 2 ng/ml PDGF), treated with DMSO (<0.1%) or thyroid hormone (1 uM), fixed after 6 days in culture, and stained using antibodies for CNP, O4, or MBP. […] (B) Screen strategy using A2B5 positive OPCs cultured under basal differentiation conditions and treated with compounds for 6 days to identify small molecules that induce the differentiation of OPCs to mature, MBP expressing oligodendrocytes.
FIG. 12A-B. Primary hit confirmation. (A) Dose response assay used to confirm primary screening hits and determine potency (EC50). (EC50) is defined as the concentration that results in a half maximal increase in the percentage of total cells that express MBP as detected by immunostaining. […] Cells were fixed and immunostained using antibodies for MBP. Error bars represent standard deviations from 3 replicate experiments. […]
FIG. 21. […] OPCs were plated in differentiation medium (2 ng/ml PDGF) and treated with various concentrations of compounds for 6 days. Cells were fixed and immunostained for MBP.
A large-scale small molecule screen was conducted to identify small molecules that promote the differentiation of oligodendrocyte precursor cells (OPCs) to a mature myelinating fate. High content imaging was used to detect in-well differentiation of rat optic nerve derived OPCs. Rat optic nerve derived OPCs were expanded en masse in OPC media containing 30 ng/mL PDGFαα. To screen for small molecule inducers of OPC differentiation, OPCs (cultured for fewer than 15 passages) were plated in poly-D-lysine coated 384 well culture plates in OPC Media containing 2 ng/mL PDGFαα and immediately treated with compounds at a final concentration of 6 μM (0.6% DMSO). Compound treated cells were incubated at 37° C., 5% CO2 for 6 days. At the end of 6 days, cells were fixed in 4% paraformaldehyde and subjected to immunofluorescence analysis. Anti-Myelin Basic Protein monoclonal antibody (a.a. 129-138, clone 1 monoclonal antibody, Millipore) (1:1000 dilution) in blocking buffere solution (3% BSA, 0.3% Triton X-100 in PBS) was added to fixed and washed cells and incubated at 4° C. overnight.

[4] = test system: OPCs; test: qRT-PCR of MBP and MOG expression in compound treated OPCs; assay type: cell-based, rat; settings: EC90 concentrations, 6 days
From the text: FIG. 2A-C. […] (A) Western blot analysis of OPCs treated with compounds at EC90 concentrations for 6 days. Total protein was isolated from cell pellets and probed for myelin basic protein (MBP) and myelin oligodendrocyte glycoprotein (MOG) using specific antibodies. (B-C) Quantitative RT-PCR (qRT-PCR) analysis of OPCs treated with compounds at EC90 concentrations for 6 days. Total RNA was isolated from cell pellets and reverse transcribed. MBP and MOG expression was quantified using specific probes and Taqman-based qRT-PCR. Expression was normalized to the internal controls β-actin and GAPDH. Fold change in gene expression over DMSO treated control cells is plotted for MBP (B) and MOG (C).

[5] = test system: OPCs; test: Western blot of MBP and MOG in compound treated OPCs; assay type: cell-based, rat; settings: OPCs treated 6 days
From the text: FIG. 2A-C. Neurotransmitter receptor modulating agents induce the differentiation of OPCs to a myelinating oligodendrocyte cell fate. (A) Western blot analysis of OPCs treated with compounds at EC90 concentrations for 6 days. Total protein was isolated from cell pellets and probed for myelin basic protein (MBP) and myelin oligodendrocyte glycoprotein (MOG) using specific antibodies. (B-C) Quantitative RT-PCR (qRT-PCR) analysis of OPCs treated with compounds at EC90 concentrations for 6 days. Total RNA was isolated from cell pellets and reverse transcribed. MBP and MOG expression was quantified using specific probes and Taqman-based qRT-PCR. Expression was normalized to the internal controls β-actin and GAPDH. Fold change in gene expression over DMSO treated control cells is plotted for MBP (B) and MOG (C).
FIG. 13. […] After 6 days in culture, cells were analyzed for MBP and MOG expression by Western blot.

[6] = test system: OPCs; test: Immunofluorescence analysis of mature oligodendrocyte markers (MBP, MOG, CNP, GalC, O1, O4); assay type: cell-based, rat; settings: OPCs treated 6 days
From the text: FIG. 3. Immunofluorescence analysis of compound treated OPCs using mature oligodendrocyte specific markers. Immunofluorescence staining using specific antibodies for MBP, MOG, and 2′,3′-cyclic nucleotide 3′ phosphodiesterase (CNP). Nuclei were identified using DAPI.
FIG. 4. Immunofluorescence analysis of compound treated OPCs using mature oligodendrocyte specific markers. Immunofluorescence staining using specific antibodies for galactocereberoside (GalC), oligodendrocyte marker O1 (O1) and oligodendrocyte marker O4 (O4). Nuclei were identified using DAPI.
FIG. 14. Compound treatment induces the differentiation of OPCs to mature oligodendrocytes. […] Cells were fixed and immunostained for MBP, MOG, CNP, GalC, O1, or O4.
Immunofluorescence was also used to confirm that the hits were able to induce oligodendrocyte maturation.

[7] = test system: muscarinic receptor; test: Carbachol co-treatment in compound induced OPC differentiation (MBP staining); assay type: cell-based, rat; settings: compounds at EC90 (benztropine 2.3 uM), serial dilutions of carbachol, 6 days
Method: (§1) Following 6 days of treatment, cells were fixed and stained for MBP. Plates were imaged using the OPERA high content screening system and MBP staining was quantified as described. […] OPCs were plated in 384-well plates at 5000 cells per well in media containing basal PDGF-αα. Cells were equilibrated with Ca^2+ sensitive Fluo-3AM® dye in HBSS for 30 min. […] Ca^2+ influx was immediately measured using the FLIPR TETRA® system.
OPCs express mAChRs, predominantly subtypes M1, M3, and M5 (F. Ragheb et al., J Neurochem, 77, 1396 (2001)). […] Activation of M1 and M3 mAChRs is coupled to downstream signal transduction events through phospholipase C, which results in increased intracellular calcium concentrations (F. Ragheb et al., J Neurochem, 77, 1396 (2001)) (FIG. 23C). M2 and M4 mAChR activation inhibits adenylatecyclase, leading to decreased intracellular cAMP levels (C. C. Felder, FASEB J, 9, 619 (1995); M. Lopez-Ilasaca et al., Science, 275, 394 (1997)). […] Acetylcholine is a known regulator of OPC proliferation and, as such, muscarinic receptor subtypes represent a reasonable class of therapeutic targets for the modulation of OPC proliferation and differentiation (F. De Angelis et al., Dev Neurobiol, (2011)).

[8] = test system: M1/M3 muscarinic receptors
Method: as §1
(A-C) OPCs were plated in differentiation media for 12 hours. […] (C) Atropine, a muscarinic antagonist, serves as a positive control. (D) OPCs were plated in differentiation medium for 12 hours. A cAMP-HTRF assay was performed using the cAMP dynamic 2 kit. […] IBMX was added as a cAMP stabilizer, and forskolin was a positive control.

Row | SMILES | mean maximal clinical EAE score in relapse, day 25 ([1]; SJL mice, scale 0-5, compounds 10 mg/kg i.p. daily from day 10, mycophenolate mofetil 20 mg/kg from day 14, mean ± SEM) | clinical severity versus vehicle, dosing after disease onset (therapeutic mode) ([1]; compounds 10 mg/kg i.p. daily from first EAE symptoms, mycophenolate 20 mg/kg from day 14) | T-cell activation (CD69, CD25) [2] | T-cell proliferation (CFSE) [2] | percentage of resulting MBP-positive cells ([3]; OPC sample cultured with agent at maximum potency, listed as GBT12935) | induction of OPC differentiation (MBP staining) [3] | induction of MBP expression (qRT-PCR) over DMSO [4] | induction of MOG expression (qRT-PCR) over DMSO [4] | MBP and MOG expression (Western blot) [5] | markers of mature myelinating oligodendrocytes (MBP, MOG, CNP, GalC, O1, O4) by immunofluorescence [6] | effect of carbachol on compound induced OPC differentiation [7] | effect on carbachol induced Ca2+ influx [8] | effect of carbachol on compound induced OPC differentiation ([7]; listed as carbapentane)
1 | COc1c(C)c2c(c(O)c1C/C=C(\C)CCC(=O)OCCN1CCOCC1)C(=O)OC2 [Mycophenolate mofetil, mycophenolate mofetil] | 0.7±0.3 | decrease in severity of the relapse | suppresses the activation and proliferation of T-cells | suppresses T-cell proliferation | – | – | – | – | – | – | – | – | –
2 | c1ccc(CCCN2CCN(CCOC(c3ccccc3)c3ccccc3)CC2)cc1 [GBR12935] | – | – | – | – | over 15% | promote OPC differentiation | two-fold | two-fold | positive | confirmed the presence of multiple markers of mature myelinating oligodendrocytes | did not inhibit; also recorded: no effect | no effect | –
3 | CCN(CC)CCOCCOC(=O)C1(c2ccccc2)CCCC1 [carbetapentane] | – | – | – | – | – | promote OPC differentiation | two-fold | two-fold | positive | confirmed the presence of multiple markers of mature myelinating oligodendrocytes | inhibited | inhibit | dose dependent inhibition
4 | OCc1cc(C(O)CNCCCCCCOCCCCc2ccccc2)ccc1O (stereo not drawn) [salmeterol] | – | – | – | – | – | promote OPC differentiation | two-fold | two-fold | positive | confirmed the presence of multiple markers of mature myelinating oligodendrocytes | did not inhibit; also recorded: no effect | no effect | –

Reference: patent US11246873B2, “Directed differentiation of oligodendrocyte precursor cells to a myelinating cell fate” (The Scripps Research Institute, priority 2011, dated 2022)
